In US11071769B2, “Lipo-glycopeptide cleavable derivatives and uses thereof” (Insmed Incorporated, priority 2017, dated 2021):
Values after ≈ are worked out from the molar mass of the structure shown.

Key:
[1] = tested on: quality control strain ATCC 29213 (MSSA); assay: MIC, CLSI-guided broth susceptibility testing, MSSA 29213; type: cell-based, Staphylococcus aureus; details: for MIC Values, MSSA 29213: ATCC 29213 (MSSA); for MIC: Staphylococcus aureus, read-out: MIC Values, MSSA 29213
Method: (§1) Compounds of the invention were evaluated for their ability to inhibit bacterial growth in two MRS A strains—MRS A 1556 and MRS A 29213. Table 2 provides MIC concentrations for metabolites of the ester and amide compounds, RV80 (metabolite of RV65 ester) and RV82 (metabolite of RV62 amide). MIC values for vancomycin and telavancin are also provided.
(§2) MIC Testing: Glycopeptide compounds were dissolved in 100% DMSO. In vitro activities were determined using CLSI-guided broth susceptibility testing to measure drug minimum inhibitory concentrations (MICs) of the compounds against the quality control strain ATCC 29213 (MSSA) and the MRS A isolate ATCC BAA-1556.

[2] = tested on: MRSA isolate ATCC BAA-1556; assay: MIC, CLSI-guided broth susceptibility testing, MRSA 1556; type: cell-based, Staphylococcus aureus; details: for MIC Values, MRSA 1556: MRSA isolate ATCC BAA-1556; for MIC: Staphylococcus aureus, read-out: MIC Values, MRSA 1556
Method: as §1, §2

[3] = Metabolism (hydrolysis) in rat plasma; type: in vitro ADME; details: 37° C.; for degradant detected in plasma: 50 μg/mL
Method: RV62 and RV65 were dissolved in 100% DMSO. Stock solutions were diluted using rat plasma to contain less than 1% organic solvent with a final drug concentration of 50 μg/mL. Samples were briefly vortexed and then incubated in a shaker set to 37° C. and 300 rpm. Aliquots were removed at specified time points and store at −80° C. until extraction and analysis. Samples were extracted using a solution of 10% TCA and analyzed using LCMS.

[4] = Degradation (hydrolysis) in Tris buffer by HPLC; type: physicochemical; details: 1 mM Tris buffer pH 6.99, 40° C., 72 h
Method: RV62 and RV65 degradation was determined according to the following procedures.
Compounds were dissolved and diluted with 1 mM Tris buffer (pH 6.99) to achieve a concentration of 54 μg/mL (stock solution). 0.5 mL of stock solution was further diluted with acetonitrile to a total volume of 10 mL. The stock solution was incubated at 40° C., with samples withdrawn at 3, 6, 24, and 72 h and tested by HPLC.
HPLC method: Samples were injected onto a 100×2.1 mm Waters Cortecs HILIC with a particle size of 1.6 μm. The mobile phase consisted of water (0.1% formic acid) and acetonitrile (0.1% formic acid). The analytic method utilized a gradient from 10% water (0.1% formic acid)/90% acetonitrile (0.1% formic acid) to 70% water (0.1% formic acid)/30% acetonitrile (0.1% formic acid). The HPLC instrument was equipped with a UV detector (280 nm). Compounds were identified by mass.

With `CCCCCCCCCC(=O)OCCNC1(C)CC(OC2C(Oc3c4cc5cc3Oc3ccc(cc3Cl)C(O)C3NC(=O)C(NC(=O)C5NC(=O)C(CC(N)=O)NC(=O)C(NC(=O)C(CC(C)C)NC)C(O)c5ccc(c(Cl)c5)O4)c4ccc(O)c(c4)-c4c(O)cc(O)cc4C(C(=O)O)NC3=O)OC(CO)C(O)C2O)OC(C)C1O` (centres unmarked) [RV54] the “MIC Values, MSSA 29213” value [1] was 0.146 mg/L (≈ 0.0886 µM) and the “MIC Values, MRSA 1556” value [2] was 0.167 mg/L (≈ 0.101 µM).
For `CCCCCCCCCC(=O)NCCNC1(C)CC(OC2C(Oc3c4cc5cc3Oc3ccc(cc3Cl)C(O)C3NC(=O)C(NC(=O)C5NC(=O)C(CC(N)=O)NC(=O)C(NC(=O)C(CC(C)C)NC)C(O)c5ccc(c(Cl)c5)O4)c4ccc(O)c(c4)-c4c(O)cc(O)cc4C(C(=O)O)NC3=O)OC(CO)C(O)C2O)OC(C)C1O` (centres unmarked) [RV56], the “MIC Values, MSSA 29213” value [1] was 0.063 mg/L (≈ 0.0383 µM) and the “MIC Values, MRSA 1556” value [2] was 0.063 mg/L (≈ 0.0383 µM).
With `CCCCCCCCCCCC(=O)NCCNC1(C)CC(OC2C(Oc3c4cc5cc3Oc3ccc(cc3Cl)C(O)C3NC(=O)C(NC(=O)C5NC(=O)C(CC(N)=O)NC(=O)C(NC(=O)C(CC(C)C)NC)C(O)c5ccc(c(Cl)c5)O4)c4ccc(O)c(c4)-c4c(O)cc(O)cc4C(C(=O)O)NC3=O)OC(CO)C(O)C2O)OC(C)C1O` (centres unmarked) [RV62] the “MIC Values, MSSA 29213” value [1] was 0.023 mg/L (≈ 0.0137 µM), the “MIC Values, MRSA 1556” value [2] was 0.023 mg/L (≈ 0.0137 µM) and the “fold more efficacious than RV65 (MIC)” value ([2]; compared with RV65, the ester with the lowest measured MIC, Table 1, both strains) was “about 3 ×”. For the same molecule, the “degradant detected in plasma” value ([3]; 24 h incubation) was 6%.
For `CCCCCCCCCCCC(=O)OCCNC1(C)CC(OC2C(Oc3c4cc5cc3Oc3ccc(cc3Cl)C(O)C3NC(=O)C(NC(=O)C5NC(=O)C(CC(N)=O)NC(=O)C(NC(=O)C(CC(C)C)NC)C(O)c5ccc(c(Cl)c5)O4)c4ccc(O)c(c4)-c4c(O)cc(O)cc4C(C(=O)O)NC3=O)OC(CO)C(O)C2O)OC(C)C1O` (centres unmarked) [RV65], the “peak area for the cleaved glycopeptide, of the total” value [4] was “about 42%”, the “MIC Values, MSSA 29213” value [1] was 0.063 mg/L (≈ 0.0376 µM) and the “MIC Values, MRSA 1556” value [2] was 0.094 mg/L (≈ 0.0561 µM). The “degradant detected in plasma” value ([3]; 6 h incubation) was about 90% and the “metabolism in plasma compared to RV62” value ([3]; over 24 h) was “metabolized faster”.
With `CNC(CC(C)C)C(=O)NC1C(=O)NC(CC(N)=O)C(=O)NC2C(=O)NC3C(=O)NC(C(=O)NC(C(=O)O)c4cc(O)cc(O)c4-c4cc3ccc4O)C(O)c3ccc(c(Cl)c3)Oc3cc2cc(c3OC2OC(CO)C(O)C(O)C2OC2CC(C)(NCCO)C(O)C(C)O2)Oc2ccc(cc2Cl)C1O` (centres unmarked) [RV80] the “MIC Values, MSSA 29213” value [1] was 1 mg/L (≈ 0.67 µM) and the “MIC Values, MRSA 1556” value [2] was 1 mg/L (≈ 0.67 µM).
Work on `CN[C@H](CC(C)C)C(=O)N[C@H]1C(=O)N[C@@H](CC(N)=O)C(=O)N[C@H]2C(=O)N[C@H]3C(=O)N[C@H](C(=O)N[C@@H](C(=O)O)c4cc(O)cc(O)c4-c4cc3ccc4O)[C@H](O)c3ccc(c(Cl)c3)Oc3cc2cc(c3O[C@@H]2O[C@H](CO)[C@@H](O)[C@H](O)[C@H]2O[C@H]2C[C@](C)(NCCN)[C@H](O)[C@H](C)O2)Oc2ccc(cc2Cl)[C@H]1O` [RV82] yielded an MIC [1] of 3 mg/L (≈ 2.01 µM) and an MIC [2] of 3 mg/L (≈ 2.01 µM).
With `CCCCCCCCCCCCCCCC(=O)OCCNC1(C)CC(OC2C(Oc3c4cc5cc3Oc3ccc(cc3Cl)C(O)C3NC(=O)C(NC(=O)C5NC(=O)C(CC(N)=O)NC(=O)C(NC(=O)C(CC(C)C)NC)C(O)c5ccc(c(Cl)c5)O4)c4ccc(O)c(c4)-c4c(O)cc(O)cc4C(C(=O)O)NC3=O)OC(CO)C(O)C2O)OC(C)C1O` (centres unmarked) [RV89] the “MIC Values, MSSA 29213” value [1] was 0.500 mg/L (≈ 0.289 µM) and the “MIC Values, MRSA 1556” value [2] was 1.000 mg/L (≈ 0.577 µM).
With `CCCCCCCC(=O)OCCNC1(C)CC(OC2C(Oc3c4cc5cc3Oc3ccc(cc3Cl)C(O)C3NC(=O)C(NC(=O)C5NC(=O)C(CC(N)=O)NC(=O)C(NC(=O)C(CC(C)C)NC)C(O)c5ccc(c(Cl)c5)O4)c4ccc(O)c(c4)-c4c(O)cc(O)cc4C(C(=O)O)NC3=O)OC(CO)C(O)C2O)OC(C)C1O` (centres unmarked) [RV90] the “MIC Values, MSSA 29213” value [1] was 0.250 mg/L (≈ 0.154 µM) and the “MIC Values, MRSA 1556” value [2] was 0.250 mg/L (≈ 0.154 µM).
With `CCCCCCCCCCCCCCCC(=O)NCCNC1(C)CC(OC2C(Oc3c4cc5cc3Oc3ccc(cc3Cl)C(O)C3NC(=O)C(NC(=O)C5NC(=O)C(CC(N)=O)NC(=O)C(NC(=O)C(CC(C)C)NC)C(O)c5ccc(c(Cl)c5)O4)c4ccc(O)c(c4)-c4c(O)cc(O)cc4C(C(=O)O)NC3=O)OC(CO)C(O)C2O)OC(C)C1O` (centres unmarked) [RV91] the “MIC Values, MSSA 29213” value [1] was 0.188 mg/L (≈ 0.109 µM) and the “MIC Values, MRSA 1556” value [2] was 0.250 mg/L (≈ 0.144 µM).
In the case of `CCCCCCCC(=O)NCCNC1(C)CC(OC2C(Oc3c4cc5cc3Oc3ccc(cc3Cl)C(O)C3NC(=O)C(NC(=O)C5NC(=O)C(CC(N)=O)NC(=O)C(NC(=O)C(CC(C)C)NC)C(O)c5ccc(c(Cl)c5)O4)c4ccc(O)c(c4)-c4c(O)cc(O)cc4C(C(=O)O)NC3=O)OC(CO)C(O)C2O)OC(C)C1O` (centres unmarked) [RV93], the “MIC Values, MSSA 29213” value [1] was 0.125 mg/L (≈ 0.0772 µM) and the “MIC Values, MRSA 1556” value [2] was 0.125 mg/L (≈ 0.0772 µM).
In the case of `CCCCCCCCCCCCNC(=O)CNC1(C)CC(OC2C(Oc3c4cc5cc3Oc3ccc(cc3Cl)C(O)C3NC(=O)C(NC(=O)C5NC(=O)C(CC(N)=O)NC(=O)C(NC(=O)C(CC(C)C)NC)C(O)c5ccc(c(Cl)c5)O4)c4ccc(O)c(c4)-c4c(O)cc(O)cc4C(C(=O)O)NC3=O)OC(CO)C(O)C2O)OC(C)C1O` (centres unmarked) [RV95], the “MIC Values, MSSA 29213” value [1] was 0.031 mg/L (≈ 0.0185 µM) and the “MIC Values, MRSA 1556” value [2] was 0.031 mg/L (≈ 0.0185 µM).
Molecule `CCCCCCCCCCNCCN[C@@]1(C)C[C@H](O[C@H]2[C@H](Oc3c4cc5cc3Oc3ccc(cc3Cl)[C@@H](O)[C@@H](NC(=O)[C@@H](CC(C)C)NC)C(=O)N[C@@H](CC(N)=O)C(=O)N[C@H]5C(=O)N[C@H]3C(=O)N[C@H](C(=O)N[C@H](C(=O)O)c5cc(O)c(CNCP(=O)(O)O)c(O)c5-c5cc3ccc5O)[C@H](O)c3ccc(c(Cl)c3)O4)O[C@H](CO)[C@@H](O)[C@@H]2O)O[C@@H](C)[C@H]1O` [Telavancin, telavancin, reference compound] has an MIC [1] of 0.063 mg/L (≈ 0.0359 µM) and an MIC [2] of 0.063 mg/L (≈ 0.0359 µM).
